Reference: PubChem BioAssay AID1963981 (Molecular Pharmacology Branch, DTP, NCI, 2024)
Where “and” joins values, the source holds several entries; their conditions need not be identical. Equal entries are not always repeated.

Test system: 354836-022-R-J1-PDC multicell spheroid viability
Experiment: Anticancer human tumor 354836-022-R-J1-PDC patient-derived head and neck squamous cell carcinoma cell line growth inhibition [PI3K]
Conditions: for viability, T/C: stronger effect = lower value; active = viability on the fitted dose curve at most 10% of control; inactive = the rest
Source text: Combinatorial screen of targeted agents with the PI3K inhibitors inavolisib, alpelisib, duvelisib, and copanlisib in multi-cell type tumor spheroids
A high-throughput screen of multi-cell type tumor spheroids was designed to identify active combinations of targeted small molecules and PI3K pathway inhibitors. Complex spheroids include a stromal component modeled by human endothelial cells (HUVEC) and fibroblasts modeled by human mesenchymal stem cells (MSCs). The concentration ranges selected for each drug and investigational agent were based upon clinically achievable concentrations if the clinical Cmax of the agent was known.
Compounds. The drugs and investigational agents: inavolisib (NSC800729), alpelisib (NSC765974), duvelisib (NSC772469), copanlisib (NSC816437), ipatasertib (NSC767898), afuresertib (NSC778305), talazoparib (NSC767125), sapanisertib (NSC764658), selumetinib (NSC741078), tovorafenib (DAY101, NSC766906), vemurafenib (NSC761431), ravoxertinib (NSC781343), sotorasib (NSC818433), MRTX1133 (NSC 836407), abemaciclib (NSC 768073), palbociclib (NSC758247), venetoclax (NSC 766270), SY5609 (NSC837396), enzalutamide (NSC755605), and darolutamide (NSC825331), were obtained from the National Cancer Institute (NCI) Developmental Therapeutics Program Chemical Repository. The FDA-approved anticancer drug set is available from the NCI Developmental Therapeutics Program. […] The stock solutions were prepared in dimethyl sulfoxide (DMSO, Sigma-Aldrich, St. Louis, MO, cat. D2650) at 800-fold the tested concentration and stored at -70 degrees C prior to their use. All drugs and investigational agents were tested over a range starting from a high concentration at or near the clinical Cmax and decreasing in half-log increments. If the clinical Cmax for an agent had not been determined, the highest concentration tested was 10 microM.
Cell Culture. All cells were maintained in an incubator at 37 degrees C and 5% CO2 with 95% humidity. The PDC lines were cultured according to standard operating procedures established by the NCI PDMR (https://pdmr.cancer.gov/sops/default.htm). All PDCs were thawed and cultured in Matrigel-coated flasks prepared with a working solution of 1X Ham's F-12 nutrient mix, without supplementation (Invitrogen, Waltham, MA, cat. 11765054), 100 U/mL penicillin-streptomycin (Invitrogen, cat. 15140122), and 2.5% Matrigel (Corning Inc., Corning, NY, cat. 354248) for the first three passages. The 354836-022-R-J1-PDC, 475296-252-R-J1-PDC, and 997726-040-R-J2-PDC lines were cultured in 6A media, which includes advanced DMEM/F-12 (Thermo Fisher Scientific, cat. 12634028), 10 mM HEPES (Thermo Fisher Scientific, cat. 15630080), 1X GlutaMAX supplement (Thermo Fisher Scientific, cat. 35050061), 0.1 mg/mL primocin (InvivoGen, San Diego, CA, cat. ant-pm-2), 10% defined fetal bovine serum, heat inactivated (HyClone Laboratories Inc., Logan, UT, cat. SH30070.03HI), 50% L-WRN conditioned media (ATCC, cat. CRL-3276), 1.25 mM N-Acetyl-L-cysteine (Sigma-Aldrich, cat. A9165), 10 mM nicotinamide (Sigma-Aldrich, cat. N0636), 1X B-27 supplement (Thermo Fisher Scientific, cat. 17504044), 1X N-2 supplement (Thermo Fisher Scientific, cat. 17502048), and 10 microM Y-27632 dihydrochloride (Tocris Bioscience, Bristol, United Kingdom, cat. 1254). The 624824-186-R-J2-PDC line was cultured in 6C/Colon 1B media, which includes all 6A media components plus 50 ng/mL human EGF recombinant protein (Thermo Fisher Scientific, cat. PHG0311). […]

[1] = curve of first compound, second compound 0.00316 µM
[2] = curve of first compound, second compound 0.01 µM
[3] = curve of first compound, second compound 0.0316 µM
[4] = curve of first compound, second compound 0.1 µM
[5] = curve of first compound, second compound 0.316 µM
[6] = curve of first compound, second compound 1 µM
[7] = second compound 0.00316 µM, first compound 0.0316 µM
[8] = second compound 0.00316 µM, first compound 0.1 µM
[9] = second compound 0.01 µM, first compound 0.0316 µM
[10] = second compound 0.01 µM, first compound 0.1 µM
[11] = second compound 0.0316 µM, first compound 0.0316 µM
[12] = second compound 0.0316 µM, first compound 0.1 µM
[13] = second compound 0.1 µM, first compound 0.0316 µM
[14] = second compound 0.1 µM, first compound 0.1 µM
[15] = second compound 0.316 µM, first compound 0.0316 µM
[16] = second compound 0.316 µM, first compound 0.1 µM
[17] = second compound 1 µM, first compound 0.0316 µM
[18] = second compound 1 µM, first compound 0.1 µM
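Also: spheroids exposed to agents for seven days before the viability read.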

CC(C)n1nc(-c2ccc3oc(N)nc3c2)c2c(N)ncnc21 + COc1c(OCCCN2CCOCC2)ccc2c3n(c(=NC(=O)c4cnc(N)nc4)nc12)CCN3
9.09 nM: IC50 [3]
< 0.316 nM: IC50 [4] | IC50 [5] | IC50 [6]
10.7 nM: IC50 [2]
active: viability, T/C [8] 3.49% | viability, T/C [10] 3.55% | viability, T/C [12] 2.77% | viability, T/C [14] 2.07% | viability, T/C (second compound 0.316 µM, first compound 0.00316 µM) 8.47% | viability, T/C (second compound 0.316 µM, first compound 0.01 µM) 10.1% | viability, T/C [15] 3.38% | viability, T/C [16] 0.76% | viability, T/C (second compound 1 µM, first compound 0.000316 µM) 1.52% | viability, T/C (second compound 1 µM, first compound 0.001 µM) 1.5% | viability, T/C (second compound 1 µM, first compound 0.00316 µM) 1.64% | viability, T/C (second compound 1 µM, first compound 0.01 µM) 1.22% | viability, T/C [17] 0.82% | viability, T/C [18] 0.62%
inactive: viability, T/C (second compound 0.00316 µM, first compound 0.000316 µM) 103% | viability, T/C (second compound 0.00316 µM, first compound 0.001 µM) 70.8% | viability, T/C (second compound 0.00316 µM, first compound 0.00316 µM) 77.9% | viability, T/C (second compound 0.00316 µM, first compound 0.01 µM) 50.9% | viability, T/C [7] 33% | viability, T/C (second compound 0.01 µM, first compound 0.000316 µM) 93.3% | viability, T/C (second compound 0.01 µM, first compound 0.001 µM) 86.8% | viability, T/C (second compound 0.01 µM, first compound 0.00316 µM) 67.7% | viability, T/C (second compound 0.01 µM, first compound 0.01 µM) 52.3% | viability, T/C [9] 28.3% | viability, T/C (second compound 0.0316 µM, first compound 0.000316 µM) 67% | viability, T/C (second compound 0.0316 µM, first compound 0.001 µM) 70.8% | viability, T/C (second compound 0.0316 µM, first compound 0.00316 µM) 61.7% | viability, T/C (second compound 0.0316 µM, first compound 0.01 µM) 49% | viability, T/C [11] 23.5% | viability, T/C (second compound 0.1 µM, first compound 0.000316 µM) 49% | viability, T/C (second compound 0.1 µM, first compound 0.001 µM) 48.2% | viability, T/C (second compound 0.1 µM, first compound 0.00316 µM) 36.4% | viability, T/C (second compound 0.1 µM, first compound 0.01 µM) 27.4% | viability, T/C [13] 11.9% | viability, T/C (second compound 0.316 µM, first compound 0.000316 µM) 16.2% | viability, T/C (second compound 0.316 µM, first compound 0.001 µM) 9.69%
11.4 nM: IC50 [1]

CCN1CCN(Cc2ccc(Nc3ncc(F)c(-c4cc(F)c5nc(C)n(C(C)C)c5c4)n3)nc2)CC1
inactive: viability, T/C (compound 0.00316 µM) 111% [middle of 4 runs] | viability, T/C (compound 0.01 µM) 94.4% [middle of 4 runs] | viability, T/C (compound 0.0316 µM) 98.2% [middle of 4 runs] | viability, T/C (compound 0.1 µM) 90% and 99.5% and 87.3% (2×) | viability, T/C (compound 0.316 µM) 94% [middle of 4 runs]
> 1000 nM and 830 nM: IC50 (curve of compound)

Cn1nccc1Nc1nccc(-c2ccn(C(CO)c3ccc(Cl)c(F)c3)c(=O)c2)n1 (centres undefined) + COc1c(OCCCN2CCOCC2)ccc2c3n(c(=NC(=O)c4cnc(N)nc4)nc12)CCN3
< 31.6 nM: IC50 [5] | IC50 [6]
active: viability, T/C (second compound 0.316 µM, first compound 1 µM) 11.4% | viability, T/C (second compound 0.316 µM, first compound 3.16 µM) 6.95% | viability, T/C (second compound 0.316 µM, first compound 10 µM) 2.26% | viability, T/C [17] 1.52% | viability, T/C [18] 1.16% | viability, T/C (second compound 1 µM, first compound 0.316 µM) 1.02% | viability, T/C (second compound 1 µM, first compound 1 µM) 1.12% | viability, T/C (second compound 1 µM, first compound 3.16 µM) 1.77% | viability, T/C (second compound 1 µM, first compound 10 µM) 0.33%
73.6 nM: IC50 [4]
> 10000 nM: IC50 [1] | IC50 [2] | IC50 [3]
inactive: viability, T/C [7] 97% | viability, T/C [8] 98.1% | viability, T/C (second compound 0.00316 µM, first compound 0.316 µM) 94.2% | viability, T/C (second compound 0.00316 µM, first compound 1 µM) 89.3% | viability, T/C (second compound 0.00316 µM, first compound 3.16 µM) 92.1% | viability, T/C (second compound 0.00316 µM, first compound 10 µM) 82.7% | viability, T/C [9] 88.5% | viability, T/C [10] 99% | viability, T/C (second compound 0.01 µM, first compound 0.316 µM) 88% | viability, T/C (second compound 0.01 µM, first compound 1 µM) 94% | viability, T/C (second compound 0.01 µM, first compound 3.16 µM) 91.9% | viability, T/C (second compound 0.01 µM, first compound 10 µM) 97.6% | viability, T/C [11] 83.4% | viability, T/C [12] 69.7% | viability, T/C (second compound 0.0316 µM, first compound 0.316 µM) 76% | viability, T/C (second compound 0.0316 µM, first compound 1 µM) 84.7% | viability, T/C (second compound 0.0316 µM, first compound 3.16 µM) 87.2% | viability, T/C (second compound 0.0316 µM, first compound 10 µM) 64.2% | viability, T/C [13] 49.1% | viability, T/C [14] 49.2% | viability, T/C (second compound 0.1 µM, first compound 0.316 µM) 46.9% | viability, T/C (second compound 0.1 µM, first compound 1 µM) 49.6% | viability, T/C (second compound 0.1 µM, first compound 3.16 µM) 44.8% | viability, T/C (second compound 0.1 µM, first compound 10 µM) 32.2% | viability, T/C [15] 11.8% | viability, T/C [16] 11.1% | viability, T/C (second compound 0.316 µM, first compound 0.316 µM) 11.1%

CC(=O)c1c(C)c2cnc(Nc3ccc(N4CCNCC4)cn3)nc2n(C2CCCC2)c1=O
> 100 nM: IC50 (curve of compound)
inactive: viability, T/C (compound 0.000316 µM) 105% (2×) and 101% and 106% | viability, T/C (compound 0.001 µM) 104% [middle of 4 runs] | viability, T/C (compound 0.00316 µM) 105% [middle of 4 runs] | viability, T/C (compound 0.01 µM) 102% [middle of 4 runs] | viability, T/C (compound 0.0316 µM) 103% [middle of 4 runs] | viability, T/C (compound 0.1 µM) 104% [middle of 4 runs]

Cn1ncc(Cl)c1-c1cc(C(=O)NC(CN)Cc2cccc(F)c2)sc1Cl (centres undefined)
inactive: viability, T/C (compound 0.0316 µM) 83.5% [middle of 4 runs] | viability, T/C (compound 0.1 µM) 51.3% [middle of 4 runs] | viability, T/C (compound 0.316 µM) 35.9% [middle of 4 runs] | viability, T/C (compound 1 µM) 22.7% [middle of 4 runs]
active: viability, T/C (compound 10 µM) 5.55% [middle of 4 runs]
15.5% [middle of 4 runs]: viability, T/C (compound 3.16 µM)
114 nM [middle of 4 runs]: IC50 (curve of compound)
